These results are taken from patent publication US9309220B2, “Processes for the preparation of (S)-3-(4- (4-(morpholinomethyl)benzyl)oxy)-1-oxoisoindolin-2-yl)piperidine-2,6-dione and pharmaceutically acceptable forms thereof” (Celgene Corporation, priority 2012, dated 2016).

Each structure is given as a SMILES string. Where a name gives a salt, the structure may show the parent alone.

The nature of this data set: eutectic enantioexcess (eeeu) / eutectic solubility of (S)-enantiomer form with corresponding racemic compound. The format is physicochemical. The method, then: The majority of racemic mixtures preferentially form racemic compounds (reference Jacques book). The saturation solubility of a racemic compound and the pure enantiomer in the presence of a solvent is known as the eutectic point. The ratio of the solubility, i.e., the “eutectic enantioexcess” (eeeu), is a useful parameter to assess the chiral upgrade capability for a given system. The eeeu is calculated from the relative solubility of the R- and S-enantiomers: eeeu=([major]−[minor])/([major]+[minor]), where [major] is the solubility of the major enantiomer at the eutectic, and [minor] is the solubility of the minor enantiomer at the eutectic. […] The eeeu can be dependent on temperature in all cases. […]
Physical characterization confirmed that the HCl salt of the racemic compound was a hydrate, which was determined to be a thermodynamically stable crystal form. […] The quantities of solvent and equipment capacity needed to provide chiral upgrade would be impractical and uneconomical. For instance, to upgrade from 90% ee to 98% ee, it was calculated to require 200 L solvent per kg starting material.
From this eeeu, it was calculated that achieving an upgrade from 90% ee to 98% ee would require 46 L solvent per kg starting material which, while an improvement, is still undesirable. […]

Take `O.O=C1CC[C@H](N2Cc3c(OCc4ccc(CN5CCOCC5)cc4)cccc3C2=O)C(=O)N1` [(S)-3-(4-((4-(morpholinomethyl)benzyl)oxy)-1-oxoisoindolin-2-yl)piperidine-2,6-dione hydrate]: the “eutectic enantioexcess (eeeu)” value (hydrate with corresponding hydrate racemic compound, 22° C.) came to 89.2%.
`O=C1CC[C@H](N2Cc3c(OCc4ccc(CN5CCOCC5)cc4)cccc3C2=O)C(=O)N1` [(S)-3-(4-((4-(morpholinomethyl)benzyl)oxy)-1-oxoisoindolin-2-yl)piperidine-2,6-dione hydrochloride]: the absolute solubility entry was “quite low”.
